Patent publication US20200179380A1, “SOLUTE AND SOLUTE MIXTURE, AS WELL AS A COMPOSITION COMPRISING AT LEAST ONE SOLUTE, FOR USE IN THE PREVENTION OR TREATMENT OF COSMETIC OR PATHOLOGIC EFFLORESCENCES CAUSED BY AIRBORNE PARTICLES” (bitop AG, priority 2014, published 2020)
Several values for one entry are separate records, joined by “and”; a condition that tells them apart may be missing. Equal entries are not always repeated. Where two headings read alike, the source gives them in different places.

How the values were obtained:
Format in all cases: cell-based, human
MMP1 gene = MMP1 gene expression (real-time PCR, relative to 18s-rRNA) in keratinocytes exposed to model particles; details: for inhibition at 2000 µM / activity at 2000 µM: Homo sapiens, Keratinocyte, 2 mM S-ectoine; for activity at 2000 µM: read-out: MMP1 Remaining activity %; for MMP1 expression ±S-ectoine mean ± SD: 24 h pretreatment with 2 mM S-ectoine, untreated = 1
Experimental: The model particles were suspended in phosphate buffered saline solution and treated with ultrasound for 1 minute ([…]90, SRM1650 and SRM2975) or 90 seconds (Huber990). Subsequently, addition to keratinocytes was done immediately. […] The incubation time of keratinocytes under the influence of model particles was 24 hours. Human epidermal keratinocytes were taken from healthy patients during abdominoplasty or breast reduction with the consent of the patients. The tissue donors originate in Asia or were of Caucasian origin. The keratinocytes isolated from the tissues were cultivated in Keratinocyte-SFM (Gibco®, Life Technologies GmbH, Darmstadt, Germany). The medium was enriched by 5 mg/L of human recombinant epidermal growth factor (EGF), 50 mg/L pituitarium which is an extract from pituitary gland from bovine (Bovine Pituitary Extract, BPE), 1% L-glutamine, 1% streptomycin/amphotericin B (Invitrogen, Karlsruhe, Germany). The cultivation was done at humid atmosphere in the presence of 5% CO2. Subconfluent keratinocytes were transferred to sample vessels having 12 sample wells (12-well plates), and were each cultivated in the sample wells. Treatment with the model particles was also done in the sample wells. […] After an incubation time of 24 hours in the presence of the model particles, RNA was isolated from the keratinocytes and relative RNA content was determined. The expression of proinflammatory gene ICAM-1, POMC gene encoding for proopiomelanocortin, MMP1 gene encoding for a human collagenase, and Cyp1a1 encoding for a phase-I-enzyme of Cytochrome P450 superfamily was investigated as a marker for the influence of the model particles on skin condition. The collagenase encoded by MMP1 gene ranks among the matrix metalloproteases and cleaves the peptide bond between proline and other amino acids of collagen I, II, III, VII and X, thereby degrading the collagen. Collagenases and, in particular, the MMP1 collagenase are involved in tissue remodeling and biological processes of the skin, such ach morphogenesis or tumor growth (benign or malign tumor formation). Thus, increased expression of MMP1 gene is a proof for increased activity of the skin cells, in particular keratinocytes. Increased MMP1 gene expression can be an indication of excessive cell growth and, thereby, of benign or malign carcinogenesis. The total RNA content was determined according to […] et al. ([…]-Beck […], Brenden H, […]. “Bioactive molecules from the Blue Lagoon: in vitro and in vivo assessment of silica mud and microalgae extracts for their effects on skin barrier function and prevention of skin ageing”. Exp Dermatol 2008 17:771.). For this purpose, the total RNA was isolated using RNeasy Total RNA Kits (Qiagen, Hilden; Germany). The RNA concentration was photometrically determined at 260/280 nm (Biophotometer, Eppendorf, Hamburg, Germany). Aliquots of total RNA of 100 ng were used for first strand cDNA synthesis using Superscript® III for the transcription step using random primers (Invitrogen, Karlsruhe, Germany). […] For the total RNA content a specific primer for the proof of 18s rRNA was designed. Independent experiments were performed with a triple determination in each case, and the mean was determined. PCR reaction was done using CFX384 TouchTM Real-Time PCR Detection System (Bio-Rad, München, Germany). In order to fluorescent marking SybrGreen-Mix was used (Thermo Fisher Scientific, St. Leon-Rot, Germany). For each experiment three samples, respectively, were determined in duplicate, and the mean was determined. The PCR protocol comprised 46 cycles, each cycle 15 minutes at 94° C. (activation of heat-activating taq polymerase) 10 seconds at 95° C. (denaturation), 20 seconds at 55° C. (annealing), 20 seconds at 72° C. (elongation). Likewise, for comparison of relative expression the expression of untreated keratinocytes was investigated. […] Methods 25: 402-408). […] The data underlying the statistical analysis are not shown here.

POMC gene = POMC gene expression (real-time PCR, relative to 18s-rRNA) in keratinocytes exposed to model particles; details: for inhibition at 2000 µM / activity at 2000 µM: Homo sapiens, Keratinocyte, 2 mM S-ectoine; for activity at 2000 µM: read-out: POMC Remaining activity %; for POMC expression ±S-ectoine mean ± SD: 24 h pretreatment with 2 mM S-ectoine, untreated = 1; for POMC expression induced by model particles after ectoine pretreatment (in words): Printex90, Huber 990, SRM1650, SRM2975, pretreatment with 2 mM ectoine for 24 hours
Cyp1a1 gene = Cyp1a1 gene expression (real-time PCR, relative to 18s-rRNA) in keratinocytes exposed to model particles; details: for inhibition at 2000 µM / activity at 2000 µM: Homo sapiens, Keratinocyte, 2 mM S-ectoine; for activity at 2000 µM: read-out: Cyp1a1 Remaining activity %
Experimental: The model particles were suspended in phosphate buffered saline solution and treated with ultrasound for 1 minute ([…]90, SRM1650 and SRM2975) or 90 seconds (Huber990). Subsequently, addition to keratinocytes was done immediately. […] The incubation time of keratinocytes under the influence of model particles was 24 hours. Human epidermal keratinocytes were taken from healthy patients during abdominoplasty or breast reduction with the consent of the patients. The tissue donors originate in Asia or were of Caucasian origin. The keratinocytes isolated from the tissues were cultivated in Keratinocyte-SFM (Gibco®, Life Technologies GmbH, Darmstadt, Germany). The medium was enriched by 5 mg/L of human recombinant epidermal growth factor (EGF), 50 mg/L pituitarium which is an extract from pituitary gland from bovine (Bovine Pituitary Extract, BPE), 1% L-glutamine, 1% streptomycin/amphotericin B (Invitrogen, Karlsruhe, Germany). The cultivation was done at humid atmosphere in the presence of 5% CO2. Subconfluent keratinocytes were transferred to sample vessels having 12 sample wells (12-well plates), and were each cultivated in the sample wells. Treatment with the model particles was also done in the sample wells. […] After an incubation time of 24 hours in the presence of the model particles, RNA was isolated from the keratinocytes and relative RNA content was determined. The expression of proinflammatory gene ICAM-1, POMC gene encoding for proopiomelanocortin, MMP1 gene encoding for a human collagenase, and Cyp1a1 encoding for a phase-I-enzyme of Cytochrome P450 superfamily was investigated as a marker for the influence of the model particles on skin condition. The enzyme encoded by Cyp1a1 gene ranks among the group of phase-I-P450-Cytochrome enzymes and mediates metabolism of drugs, foreign substances and environmental toxins. The Cy1a1 enzyme is a monooxygenase and responsible for metabolizing the afore-mentioned compounds. The protein is encoded in endoplasmic reticulum and its expression can severely be induced by polycyclic aromatic hydrocarbons. The enzyme encoded by Cyp1a1 metabolizes environmental noxae, in particular polycyclic aromatic hydrocarbons, into cancer-causing intermediates. Cyp1a2 is a family member related to Cyp1a1. Increased Cyp1a1 expression, and, in particular, increased Cyp1a2 expression, thus proves detoxification reaction. The total RNA content was determined according to […] et al. ([…]-Beck […], Brenden H, […]. “Bioactive molecules from the Blue Lagoon: in vitro and in vivo assessment of silica mud and microalgae extracts for their effects on skin barrier function and prevention of skin ageing”. Exp Dermatol 2008 17:771.). For this purpose, the total RNA was isolated using RNeasy Total RNA Kits (Qiagen, Hilden; Germany). The RNA concentration was photometrically determined at 260/280 nm (Biophotometer, Eppendorf, Hamburg, Germany). Aliquots of total RNA of 100 ng were used for first strand cDNA synthesis using Superscript® III for the transcription step using random primers (Invitrogen, Karlsruhe, Germany). […] For the total RNA content a specific primer for the proof of 18s rRNA was designed. Independent experiments were performed with a triple determination in each case, and the mean was determined. PCR reaction was done using CFX384 TouchTM Real-Time PCR Detection System (Bio-Rad, München, Germany). In order to fluorescent marking SybrGreen-Mix was used (Thermo Fisher Scientific, St. Leon-Rot, Germany). For each experiment three samples, respectively, were determined in duplicate, and the mean was determined. […] (activation of heat-activating taq polymerase) 10 seconds at 95° C. (denaturation), 20 seconds at 55° C. (annealing), 20 seconds at 72° C. (elongation). Likewise, for comparison of relative expression the expression of untreated keratinocytes was investigated. […] Methods 25: 402-408). […] The data underlying the statistical analysis are not shown here.

[1] = Printex90, Huber 990, SRM1650, SRM2975, pretreatment with 2 mM ectoine

CC1=N[C@H](C(=O)O)CCN1 [S-ectoine, (S)-1,4,5,6-tetrahydro-2-methyl-4-pyrimidine carboxylic acid]
inhibition at 2000 µM (MMP1 gene; Huber990 particles): 42% | activity at 2000 µM (MMP1 gene; Huber990 particles): 58% | inhibition at 2000 µM (MMP1 gene; SRM1650 particles): 26% | activity at 2000 µM (MMP1 gene; SRM1650 particles): 74% | MMP1 expression induced by model particles after ectoine pretreatment (in words) (MMP1 gene; [1]): inhibited | MMP1 expression ±S-ectoine mean ± SD (MMP1 gene; Printex90 particles): 0.82 ± 0.10 | MMP1 expression ±S-ectoine mean ± SD (MMP1 gene; SRM2975 particles): 1.28 ± 0.22 | inhibition at 2000 µM (POMC gene; Huber990 particles): 100% | activity at 2000 µM (POMC gene; Huber990 particles): 0% | inhibition at 2000 µM (POMC gene; Printex90 particles): 100% | activity at 2000 µM (POMC gene; Printex90 particles): 0% | inhibition at 2000 µM (POMC gene; SRM1650 particles): 99% | activity at 2000 µM (POMC gene; SRM1650 particles): 1% | inhibition at 2000 µM (POMC gene; SRM2975 particles): 100% | activity at 2000 µM (POMC gene; SRM2975 particles): 0% | POMC expression ±S-ectoine mean ± SD (POMC gene; Huber990 particles): 0.83 ± 0.04+ | POMC expression induced by model particles after ectoine pretreatment (in words) (POMC gene): significant inhibition | POMC expression induced by model particles after ectoine pretreatment (in words) (POMC gene; listed as ectoine): inhibited | POMC expression ±S-ectoine mean ± SD (POMC gene; Printex90 particles): 0.88 ± 0.05+ | POMC expression ±S-ectoine mean ± SD (POMC gene; SRM1650 particles): 1.01 ± 0.05+ | POMC expression ±S-ectoine mean ± SD (POMC gene; SRM2975 particles): 0.99 ± 0.08+ | inhibition at 2000 µM (Cyp1a1 gene; Huber990 particles): 57% | activity at 2000 µM (Cyp1a1 gene; Huber990 particles): 43% | inhibition at 2000 µM (Cyp1a1 gene; Printex90 particles): 70% | activity at 2000 µM (Cyp1a1 gene; Printex90 particles): 30% | inhibition at 2000 µM (Cyp1a1 gene; SRM1650 particles): 46% | activity at 2000 µM (Cyp1a1 gene; SRM1650 particles): 54% | inhibition at 2000 µM (Cyp1a1 gene; SRM2975 particles): 41% | activity at 2000 µM (Cyp1a1 gene; SRM2975 particles): 59% | Cyp1a1 expression induced by model particles after ectoine pretreatment (in words) (Cyp1a1 gene; [1]): inhibited | Cyp1a1 expression ±S-ectoine mean ± SD (Cyp1a1 gene; Printex90 particles, 24 h pretreatment with 2 mM S-ectoine, untreated = 1): 1.19 and 1.19 ± 0.29
